Patent publication US9115169B2, “Method of treating tumors” (Lytix Biopharma AS, priority 2000, dated 2015)
In brackets after ≈: the same amount, converted by molar mass. Read-outs that look alike come from different tables or passages of the source. Where a SMILES comes first, the peptide text is derived from it. [ ]: non-standard residue; d: D form. The star is where a group is joined. βNA = c1ccc2cc(N*)ccc2c1; OBn = c1ccc(CO*)cc1

How the values were obtained:
[1] = tested on: Staphylococcus aureus ATCC 25923
MRSE ATCC 27626 [2] = tested on: MRSE ATCC 27626
MRSA ATCC 33591 [3] = tested on: MRSA ATCC 33591
[4] = tested on: Escherichia coli ATCC 25922
MRSA ATCC 33591 [5] = tested on: MRSA ATCC 33591; remark: listed apart in the source
MRSE ATCC 27626 [6] = tested on: MRSE ATCC 27626; remark: listed apart in the source
[7] = tested on: Staphylococcus aureus ATCC 25923; settings: ATCC 25923
[8] = tested on: Escherichia coli ATCC 25922; settings: ATCC 25922

| Structure (SMILES) | MIC S. aureus ([1]; ATCC 25923) | MIC MRSE (MRSE ATCC 27626 [2]; ATCC 27626) | MIC MRSA (MRSA ATCC 33591 [3]; ATCC 33591) [µg/mL] | MIC E. coli ([4]; ATCC 25922) | MBC MRSA (MRSA ATCC 33591 [5]) | MBC MRSE (MRSE ATCC 27626 [6]) | MBC S. aureus [7] | MBC E. coli [8] | also measured |
| --- | --- | --- | --- | --- | --- | --- | --- | --- | --- |
| NCCCC[C@H](N)C(=O)O[C@@H](Cc1c[nH]c2ccccc12)C(=O)OCc1ccccc1 [Kψ(COO)WOBzl] |  |  |  |  |  |  |  |  | Minimum inhibitory concentration P. aeruginosa (P. aeruginosa): 300 µg/mL (≈ 708 µM); Minimum inhibitory concentration S. aureus ([1]; ATCC 25923): 50 µg/mL (≈ 118 µM); Minimum inhibitory concentration MRSE (MRSE ATCC 27626 [2]; ATCC 27626): 37.5 µg/mL (≈ 88.5 µM); Minimum inhibitory concentration MRSA (MRSA ATCC 33591 [3]; ATCC 33591): 100 µg/mL (≈ 236 µM); Minimum inhibitory concentration E. coli ([4]; ATCC 25922): 150 µg/mL (≈ 354 µM) |
| N=C(N)NCCC[C@H](NC(=O)[C@@H](N)Cc1ccccc1)C(=O)Nc1ccc2ccccc2c1 [FRβNA] (H-Phe-Arg-βNA) |  |  |  |  |  |  |  |  | Minimum inhibitory concentration P. aeruginosa (P. aeruginosa; Table 9): >300 µg/mL; Minimum inhibitory concentration S. aureus ([1]; Table 9): 5 µg/mL (≈ 11.2 µM); Minimum inhibitory concentration MRSE (MRSE ATCC 27626 [2]; Table 9): 5 µg/mL (≈ 11.2 µM); Minimum inhibitory concentration MRSA (MRSA ATCC 33591 [3]; Table 9): 12.5 µg/mL (≈ 28 µM); Minimum inhibitory concentration E. coli ([4]; Table 9): >150 µg/mL |
| N=C(N)NCCC[C@H](NC(=O)[C@@H](N)Cc1ccc(-c2ccccc2)cc1)C(=O)OCc1ccc(-c2ccccc2)cc1 [BipROBip] |  |  |  |  |  |  |  |  | Minimum inhibitory concentration S. aureus ([1]; ATCC 25923): 5.0 µg/mL (≈ 8.87 µM); Minimum inhibitory concentration MRSE (MRSE ATCC 27626 [2]; ATCC 27626): 5.0 µg/mL (≈ 8.87 µM); Minimum inhibitory concentration MRSA (MRSA ATCC 33591 [3]; ATCC 33591): 5.0 µg/mL (≈ 8.87 µM); Minimum inhibitory concentration E. coli ([4]; ATCC 25922): 50 µg/mL (≈ 88.7 µM) |
| COC(=O)[C@H](CCCNC(=N)N)NC(=O)[C@H](Cc1c[nH]c2ccccc12)NC(=O)[C@@H](N)Cc1c[nH]c2ccccc12 [WWR-OMe, H-L-Trp-L-Trp-L-Arg-OMe] (H-Trp-Trp-Arg-OMe) |  |  |  |  | >200 (>200) μg/ml | >200 (>200) μg/ml | >200 (>200) μg/ml | >200 (>200) μg/ml |  |
| N=C(N)NCCC[C@H](NC(=O)[C@@H](N)Cc1ccccc1)C(=O)OCc1ccccc1 [FR-Obzl] (H-Phe-Arg-OBn; N-terminus assumed) |  |  |  |  |  |  |  |  | MIC P. aerug. (P. aeruginosa): >300.0 µg/mL |
| COC(=O)[C@H](CCCNC(=N)N)NC(=O)[C@H](Cc1c[nH]c2ccccc12)NC(=O)[C@@H](N)CCCNC(=N)N [RWR-OMe, H-L-Arg-L-Trp-L-Arg-OMe] (H-Arg-Trp-Arg-OMe) |  |  |  |  | >200 (>200) μg/ml | 200 µg/mL (≈ 377 µM) | >200 (>200) μg/ml | >200 (>200) μg/ml |  |

The next lines start with results.

| MIC S. aureus ([1]; ATCC 25923) | MIC MRSE (MRSE ATCC 27626 [2]; ATCC 27626) | MIC MRSA (MRSA ATCC 33591 [3]; ATCC 33591) [µg/mL] | MIC E. coli ([4]; ATCC 25922) | Structure (SMILES) | MBC MRSA (MRSA ATCC 33591 [5]) | MBC MRSE (MRSE ATCC 27626 [6]) | MBC S. aureus [7] | MBC E. coli [8] | also measured |
| --- | --- | --- | --- | --- | --- | --- | --- | --- | --- |
| 300 µg/mL (≈ 782 µM) | 150 µg/mL (≈ 391 µM) | 300 (≈ 782 µM) | >300 µg/mL | NCCCC[C@H](N)C(=O)N[C@@H](Cc1ccccc1)C(=O)OCc1ccccc1 [KF-Obzl] |  |  |  |  |  |
| 5 (5) μg/ml | 2.5 (2.5) μg/ml | 2.5 to 5 | 75 µg/mL (≈ 94.6 µM) | N=C(N)NCCC[C@H](N)C(=O)N[C@@H](Cc1c[nH]c2ccccc12)C(=O)N[C@H](CCCNC(=N)N)C(=O)N[C@H](Cc1c[nH]c2ccccc12)C(=O)OCc1ccccc1 [RWrw-OBzl, H-L-Arg-L-Trp-D-Arg-D-Trp-OBzl] (H-RW[dR][dW]-OBn) | 5 µg/mL (≈ 6.31 µM) | 2.5 (2.5) μg/ml | 5 (5) μg/ml | 75 to 100 µg/mL |  |
| 5 µg/mL (≈ 6.31 µM) | 2.5 (2.5) μg/ml | 5 (≈ 6.31 µM) | 75 µg/mL (≈ 94.6 µM) | N=C(N)NCCC[C@H](NC(=O)[C@H](Cc1c[nH]c2ccccc12)NC(=O)[C@@H](N)CCCNC(=N)N)C(=O)N[C@@H](Cc1c[nH]c2ccccc12)C(=O)OCc1ccccc1 [RWRW-OBzl, H-L-Arg-L-Trp-L-Arg-L-Trp-OBzl] (H-RWRW-OBn) | 5 to 10 µg/mL | 2.5 (2.5) μg/ml | 5 to 10 µg/mL | 100 µg/mL (≈ 126 µM) |  |
| 75 µg/mL (≈ 105 µM) |  |  |  | COC(=O)[C@H](CCCNC(=N)N)NC(=O)[C@H](Cc1c[nH]c2ccccc12)NC(=O)[C@H](Cc1c[nH]c2ccccc12)NC(=O)[C@@H](N)CCCNC(=N)N [RWWR-OMe, H-L-Arg-L-Trp-L-Trp-L-Arg-OMe] (H-RWWR-OMe) | 100 to 200 µg/mL | 20 (20) μg/ml | 100 to 200 µg/mL | >200 (>200) μg/ml |  |
| 5 (5) μg/ml | 5 (5) μg/ml | 5 (≈ 7.85 µM) | 75 µg/mL (≈ 118 µM) | N=C(N)NCCC[C@@H](NC(=O)[C@H](N)Cc1c[nH]c2ccccc12)C(=O)N[C@H](Cc1c[nH]c2ccccc12)C(=O)OCc1ccccc1 [wrw OBz] (H-[dW]-[dR]-[dW]-OBn) | 10 µg/mL (≈ 15.7 µM) | 5 (5) μg/ml | 5 (5) μg/ml | 200 µg/mL (≈ 314 µM) |  |
| 50 (50) μg/ml | 20 (20) μg/ml | 25 (≈ 55.5 µM) | >200 (>200) μg/ml | N=C(N)NCCC[C@H](N)C(=O)N[C@@H](Cc1c[nH]c2ccccc12)C(=O)OCc1ccccc1 [RW OBz] (H-Arg-Trp-OBn) | 50 µg/mL (≈ 111 µM) | 20 (20) μg/ml | 50 (50) μg/ml | >200 (>200) μg/ml |  |
